pEC50: −log10 of the molar value. Entries after “also recorded” stand apart in the source; their conditions may differ.
Molecular target: T1, FXR (Homo sapiens, UniProt Q96RI1)
T1 construct: using a full length FXR on a natural response element; expressed in transfected cells
T1 sequence (Q96RI1 1-486): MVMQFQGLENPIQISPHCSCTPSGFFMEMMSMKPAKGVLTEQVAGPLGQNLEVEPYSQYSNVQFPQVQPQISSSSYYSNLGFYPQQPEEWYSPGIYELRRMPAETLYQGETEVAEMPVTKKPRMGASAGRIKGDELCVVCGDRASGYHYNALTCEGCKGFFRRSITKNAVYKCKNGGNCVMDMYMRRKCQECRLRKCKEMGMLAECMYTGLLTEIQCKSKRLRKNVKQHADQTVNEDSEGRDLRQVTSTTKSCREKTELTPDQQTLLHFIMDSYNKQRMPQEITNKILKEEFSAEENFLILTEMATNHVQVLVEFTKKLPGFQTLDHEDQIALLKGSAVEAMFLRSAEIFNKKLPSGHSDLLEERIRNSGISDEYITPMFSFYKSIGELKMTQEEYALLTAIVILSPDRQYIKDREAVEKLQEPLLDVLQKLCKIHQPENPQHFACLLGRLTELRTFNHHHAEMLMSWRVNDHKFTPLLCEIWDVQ
Assay: cell-based FXR transcription assay, FXR responsive promoter linked to luciferase reporter
Conditions: for RE^a / pEC50: cell-based FXR reporter assay; for RE^a: footnote a not given; for FXR activation, in words: cell-based reporter assay, SAR discussion; for pEC50: determined with Prism 3.0
Description: In addition to ensuring that only cell permeable compounds were selected for further optimization, this approach allows for the detection of FXR activation in a natural system (i.e., correct folding of the protein and in the presence of a complete compliment of co-activators and co-repressors).
The feasibility of creating high throughput screens (HTS) for ORs was explored using FXR as a candidate orphan receptor (OR) with a known activator, chenodeoxycholic acid (CDCA) as a ligand. The screen is based on the co-transfection of a full-length receptor with the reporter vector containing a natural hormone response element under a minimal eukaryotic promoter. […] Using this 384-well format, the high throughput screening (HTS) approach to FXR as a candidate OR was employed. […] A central question in the feasibility studies is whether this library is suitable for screening for nuclear receptor ligands. Samples of this library were first reformatted into a 384-well format and then subjected to the FXR cell-based assays described above and assessed for FXR-mediated transcriptional activity. Cells were exposed to approximately 10 μM of sample for 18 hrs prior to washing and luciferase analysis.
EC50 values were determined with Prism 3.0 software via the activity of the subject compound in the previously described cell based assay.

Row | RE^a | FXR activation, in words | pEC50 | SMILES
1 | 0.30 | – | – | COC(=O)/C=C/c1cccc(N(Cc2ccc(/C=C/c3c(C)cc(C)cc3C)cc2)C(=O)C(C)C)c1 [Compound 196]
2 | 0.32 | – | – | COC(=O)C=Cc1cccc(N(Cc2ccc(C=Cc3scnc3C)cc2)C(=O)C(C)C)c1 [Compound 211]
3 | 0.11 | – | – | COC(=O)C=Cc1cccc(N(Cc2ccccc2Br)C(=O)C2CCCCC2)c1 [Compound 114]
4 | – | only micromolar potency | – | COC(=O)/C=C/c1cccc(N(Cc2ccccc2/C=C/C(=O)OC(C)(C)C)C(=O)C2CCCCC2)c1 [Compound 109]
5 | 1.09 | – | – | COC(=O)/C=C/c1cccc(N(Cc2ccc(-c3cccc(C)c3)cc2)C(=O)C(C)C)c1 [Compound 239]
6 | 0.21 | – | – | COC(=O)/C=C/c1cccc(N(Cc2ccc(/C=C/c3c(F)cccc3F)cc2)C(=O)NC(C)C)c1 [Compound 191]
7 | 0.61 | – | – | COC(=O)/C=C/c1cccc(N(Cc2ccc(/C=C/c3cccc(F)c3)cc2)C(=O)NC(C)C)c1 [Compound 203]
8 | – | inactive | – | COC(=O)/C=C/c1cccc(N(Cc2ccc3c(c2OC)OC(C)(C)C=C3)C(=S)C2CC2)c1 [Compound 83]
9 | 2.06 | – | – | CCOCC=Cc1ccc(CN(C(=O)C2CCCCC2)c2cccc(C=CC(=O)OC)c2)cc1 [Compound 157]
10 | 1.70 | excellent activity | – | COC(=O)/C=C/c1cccc(N(Cc2ccc(-c3ccc(F)c(F)c3)cc2)C(=O)C2CCCCC2)c1 [Compound 213]
11 | 0.24 | among the least active | – | COC(=O)C=Cc1cccc(N(Cc2ccc(C=Cc3c(C)cc(C)cc3C)cc2)C(=O)C2CCCCC2)c1 [Compound 195]
12 | 1.38 | – | – | COC(=O)/C=C/c1cccc(N(Cc2ccc(-c3ccc(C(C)(C)C)cc3)cc2)C(=O)C2CCCCC2)c1 [Compound 262]
13 | 1.06 | marked decline in potency | – | CC(C)(C)OC(=O)C=Cc1ccc(CN(C(=O)C2CCCCC2)c2cccc(C=CC(=O)OC(C)(C)C)c2)cc1 [Compound 134]
14 | 0.59 | – | – | COC(=O)/C=C/c1cccc(N(Cc2ccc(/C=C/c3cccc(Cl)c3)cc2)C(=O)NC(C)C)c1 [Compound 182]
15 | 2.07 | marked decline in potency | 6.59 | CCOC(=O)C=Cc1cccc(N(Cc2ccc(C=CC(=O)OC(C)(C)C)cc2)C(=O)C2CCCCC2)c1 [Compound 133]
16 | 0.18 | – | – | CCOC(=O)COc1cc(C=CC(=O)OC(C)(C)C)ccc1CN(C(=O)C1CCCCC1)c1cccc(C=CC(=O)OC)c1 [Compound 167]
17 | 0.09 | – | – | COC(=O)/C=C/c1cccc(N(Cc2ccc(-c3ccccc3OC)cc2)C(=O)NC(C)C)c1 [Compound 220]
18 | 0.23 | – | – | COC(=O)/C=C/c1cccc(N(Cc2ccc(-c3ccc(SC)cc3)cc2)C(=O)NC(C)C)c1 [Compound 217]
19 | 0.09 | – | – | COC(=O)/C=C/c1cccc(N(Cc2ccccc2)C(=O)C2CCCCC2)c1 [Compound 110]
20 | 1.01 | – | – | COC(=O)/C=C/c1cccc(N(Cc2ccc(-c3ccc(N(C)C)cc3)cc2)C(=O)NC(C)C)c1 [Compound 261]
21 | 0.37 | – | 5.85 | COC(=O)/C=C/c1cccc(N(Cc2ccc(/C=C/c3ccc(C)cc3)cc2)C(=O)C(C)C)c1 [Compound 175]
22 | 0.79 | – | – | COC(=O)/C=C/c1cccc(N(Cc2ccc(-c3cc(Cl)ccc3OC)cc2)C(=O)C(C)C)c1 [Compound 242]
23 | 0.78 | – | – | COC(=O)/C=C/c1cccc(N(Cc2ccc(-c3ccc(OC(F)(F)F)cc3)cc2)C(=O)C(C)C)c1 [Compound 251]
24 | 0.66 | – | – | COC(=O)C=Cc1cccc(N(Cc2ccc(C=CC(=O)N(C)C)cc2)C(=O)C2CCCCC2)c1 [Compound 154]
25 | – | among the most active at this stage | – | COc1c(CN(C(=O)C2CCCCC2)c2ccccc2)ccc2c1OC(C)(C)C=C2 [Compound 27]
26 | 1.25 | excellent activity | – | COC(=O)/C=C/c1cccc(N(Cc2ccc(-c3ccc4c(c3)OCO4)cc2)C(=O)C(C)C)c1 [Compound 245]

Row | RE^a | FXR activation, in words | pEC50 | SMILES
27 | 0.62 | – | – | COC(=O)C=Cc1cccc(N(Cc2ccc(C=Cc3ccccn3)cc2)C(=O)C(C)C)c1 [Compound 208]
28 | 1.41 | excellent activity | – | COC(=O)C=Cc1cccc(N(Cc2ccc(C=Cc3cccc(Cl)c3)cc2)C(=O)C2CCCCC2)c1 [Compound 180]
29 | 0.11 | – | – | COC(=O)C=Cc1cccc(N(Cc2cccc(Br)c2)C(=O)C2CCCCC2)c1 [Compound 113]
30 | 0.08 | – | – | COC(=O)C=Cc1cccc(N(Cc2ccc(C=CC(=O)O)cc2)C(=O)C2CCCCC2)c1 [Compound 104]
31 | 1.68 | – | – | COCC=Cc1cccc(N(Cc2ccc(C=CC(=O)OC(C)(C)C)cc2)C(=O)C2CCCCC2)c1 [Compound 136]
32 | 2.12 | – | – | COC(=O)/C=C/c1cccc(N(Cc2ccc(/C=C/C(=O)OC(C)(C)C)cc2)C(=O)C2CCCCC2)c1 [Compound 105]
33 | 1.04 | – | – | COC(=O)/C=C/c1cccc(N(Cc2ccc(-c3ccc(OC(F)(F)F)cc3)cc2)C(=O)C2CCCCC2)c1 [Compound 250]
34 | 0.49 | – | – | COC(=O)/C=C/c1cccc(N(Cc2ccc(-c3cccc(Cl)c3)cc2)C(=O)NC(C)C)c1 [Compound 234]
35 | 0.64 | only micromolar activity | – | COC(=O)C=Cc1cccc(N(Cc2ccc(C=CCOc3ccccc3)cc2)C(=O)C2CCCCC2)c1 [Compound 158]
36 | 0.09 | – | – | COC(=O)C=Cc1cccc(N(C)C(=O)C2CCCCC2)c1 [Compound 147]
37 | – | only micromolar potency | – | COC(=O)/C=C/c1cccc(N(Cc2cccc(/C=C/C(=O)OC(C)(C)C)c2)C(=O)C2CCCCC2)c1 [Compound 107]
38 | 0.91 | – | – | COC(=O)/C=C/c1cccc(N(Cc2ccc(/C=C/c3ccc(F)cc3)cc2)C(=O)NC(C)C)c1 [Compound 206]
39 | 0.53 | – | – | COC(=O)C=Cc1cccc(N(Cc2ccc(C=Cc3scnc3C)cc2)C(=O)C2CCCCC2)c1 [Compound 210]
40 | 0.83 | among the least active | – | COC(=O)/C=C/c1cccc(N(Cc2ccc(/C=C/c3ccc(C)cc3)cc2)C(=O)C2CCCCC2)c1 [Compound 174]
41 | 1.63 | – | – | COCC=Cc1ccc(CN(C(=O)C2CCCCC2)c2cccc(C=CC(=O)OC)c2)cc1 [Compound 156]
42 | 0.95 | – | – | COC(=O)/C=C/c1cccc(N(Cc2ccc(-c3cc(Cl)cc(Cl)c3)cc2)C(=O)C2CCCCC2)c1 [Compound 126]
43 | 0.69 | – | – | COC(=O)/C=C/c1cccc(N(Cc2ccc(-c3cccc(OC(F)(F)F)c3)cc2)C(=O)C(C)C)c1 [Compound 254]
44 | 0.09 | – | – | COC(=O)/C=C/c1cccc(N(Cc2ccc(-c3cccc(OC(F)(F)F)c3)cc2)C(=O)NC(C)C)c1 [Compound 255]
45 | 1.71 | excellent activity | – | COC(=O)/C=C/c1cccc(N(Cc2ccc(-c3ccc(OC)cc3)cc2)C(=O)C2CCCCC2)c1 [Compound 229]
46 | 1.15 | – | – | COC(=O)/C=C/c1cccc(N(Cc2ccc(-c3ccc(F)c(F)c3)cc2)C(=O)C(C)C)c1 [Compound 214]
47 | 0.29 | – | – | COC(=O)C=Cc1cccc(N(Cc2ccc(C=Cc3ccc(C(C)(C)C)cc3)cc2)C(=O)C2CCCCC2)c1 [Compound 123]
48 | 1.03 | – | – | CCOc1cccc(-c2ccc(CN(C(=O)C(C)C)c3cccc(/C=C/C(=O)OC)c3)cc2)c1 [Compound 227]
49 | 1.21 | excellent activity | – | COC(=O)/C=C/c1cccc(N(Cc2ccc(-c3ccc(OC)cc3)cc2)C(=O)C(C)C)c1 [Compound 230]
50 | 0.64 | – | – | CC(C)(C)OC(=O)/C=C/c1cccc(N(Cc2ccc(CCC(=O)OC(C)(C)C)cc2)C(=O)C2CCCCC2)c1 [Compound 160]
51 | 0.23 | – | – | COC(=O)/C=C/c1cccc(N(Cc2ccc(-c3ccc(F)c(F)c3)cc2)C(=O)NC(C)C)c1 [Compound 215]
52 | 0.98 | excellent activity | – | COC(=O)/C=C/c1cccc(N(Cc2ccc(-c3ccc(SC)cc3)cc2)C(=O)C(C)C)c1 [Compound 216]

Row | SMILES | RE^a | FXR activation, in words | pEC50
53 | COC(=O)/C=C/c1cccc(N(Cc2ccc3c(c2OC)OC(C)(C)C=C3)C(=O)C2CC2)c1 [Compound 29] | – | substantially better activator of FXR than compound 26; also recorded: capable of activating FXR to a significant extent | –
54 | COC(=O)C=Cc1cccc(N(Cc2ccc(C=Cc3ccccc3F)cc2)C(=O)C2CCCCC2)c1 [Compound 192] | 1.41 | excellent activity; also recorded: among the most active | –
